Assay results reported in the NIST ThermoML archive (doi:10.1021/acs.jced.9b00507).

Experiment: xn = mol fraction of the nth substance listed
Conditions: 100 kPa, Liquid; for viscosity: Concentric cylinders viscometry; for mass density: Vibrating tube method

CCCCCCn1cc[n+](C)c1.O=[N+]([O-])[O-] [1-hexyl-3-methylimidazolium nitrate] + CCCCCCCCCO
Conditions	mass density [kg/m3]	viscosity [mPa·s]
293.15 K, x1 = 0.0819	856.1	15.74
293.15 K, x1 = 0.1609	882.8	22.23
293.15 K, x1 = 0.2386	908.3	30.27
293.15 K, x1 = 0.3483	942.9	48.53
293.15 K, x1 = 0.4392	970.5	71.12
293.15 K, x1 = 0.5588	1005.4	117.49
293.15 K, x1 = 0.6508	1031.3	177.42
293.15 K, x1 = 0.7394	1055.3	263.63
293.15 K, x1 = 0.8497	1083.9	413.05
293.15 K, x1 = 0.9456	1107.6	630.96
293.15 K, x1 = 1	1120.3	804.17
298.15 K, x1 = 0.0819	852.5	12.59
298.15 K, x1 = 0.1609	879.2	16.67
298.15 K, x1 = 0.2386	904.7	21.93
298.15 K, x1 = 0.3483	939.3	33.81
298.15 K, x1 = 0.4392	967	48.19
298.15 K, x1 = 0.5588	1001.9	79.43
298.15 K, x1 = 0.6508	1027.9	118.3
298.15 K, x1 = 0.7394	1052	175.79
298.15 K, x1 = 0.8497	1080.7	288.4
298.15 K, x1 = 0.9456	1104.5	439.6
298.15 K, x1 = 1	1117.5	545.25
303.15 K, x1 = 0.0819	849	10.19
303.15 K, x1 = 0.1609	875.5	13.18
303.15 K, x1 = 0.2386	901	16.79
303.15 K, x1 = 0.3483	935.6	24.27
303.15 K, x1 = 0.4392	963.3	33.11
303.15 K, x1 = 0.5588	998.3	51.88
303.15 K, x1 = 0.6508	1024.3	76.03
303.15 K, x1 = 0.7394	1048.4	113.24
303.15 K, x1 = 0.8497	1077.3	188.34
303.15 K, x1 = 0.9456	1101.2	294.59
303.15 K, x1 = 1	1114.3	369.14
308.15 K, x1 = 0.0819	845.5	8.41
308.15 K, x1 = 0.1609	872	10.05
308.15 K, x1 = 0.2386	897.4	12.25
308.15 K, x1 = 0.3483	932	16.94
308.15 K, x1 = 0.4392	959.7	22.08
308.15 K, x1 = 0.5588	994.7	32.81
308.15 K, x1 = 0.6508	1020.6	45.71
308.15 K, x1 = 0.7394	1044.8	68.08
308.15 K, x1 = 0.8497	1073.7	116.37
308.15 K, x1 = 0.9456	1097.8	192.31
308.15 K, x1 = 1	1111.1	257.59
313.15 K, x1 = 0.0819	841.9	6.7
313.15 K, x1 = 0.1609	868.3	7.87
313.15 K, x1 = 0.2386	893.7	9.06
313.15 K, x1 = 0.3483	928.3	11.04
313.15 K, x1 = 0.4392	956	13.27
313.15 K, x1 = 0.5588	991	18.92
313.15 K, x1 = 0.6508	1017	26.73
313.15 K, x1 = 0.7394	1041.2	41.3
313.15 K, x1 = 0.8497	1070.2	73.71
313.15 K, x1 = 0.9456	1094.4	136.37
313.15 K, x1 = 1	1107.8	185.67
318.15 K, x1 = 0.0819	838.3	5.28
318.15 K, x1 = 0.1609	864.7	5.78
318.15 K, x1 = 0.2386	890	6.35
318.15 K, x1 = 0.3483	924.6	7.36
318.15 K, x1 = 0.4392	952.3	8.61
318.15 K, x1 = 0.5588	987.4	11.46
318.15 K, x1 = 0.6508	1013.5	15.85
318.15 K, x1 = 0.7394	1037.8	25.39
318.15 K, x1 = 0.8497	1066.9	53.43
318.15 K, x1 = 0.9456	1091.2	101.71
318.15 K, x1 = 1	1104.7	140.18
323.15 K, x1 = 0.0819	834.7	4.15
323.15 K, x1 = 0.1609	861.1	4.25
323.15 K, x1 = 0.2386	886.4	4.41
323.15 K, x1 = 0.3483	921	4.84
323.15 K, x1 = 0.4392	948.6	5.33
323.15 K, x1 = 0.5588	983.8	6.84
323.15 K, x1 = 0.6508	1009.9	9.63
323.15 K, x1 = 0.7394	1034.3	16.2
323.15 K, x1 = 0.8497	1063.5	37.68
323.15 K, x1 = 0.9456	1088	78.73
323.15 K, x1 = 1	1101.6	110.94
